Measured values: the supplement of paper PMC11451515

Legend:
Assay in all cases: AUC of viability dose-response curve (% viability x log10 dose units); higher = less sensitive
Conditions in all cases: 48 h
P12-Ichikawa = system: P12-Ichikawa
Procedure, shortened: (§1)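 Over 48 h at 37°C, leukemia cells in 1536-well plates (500 or 1000 cells/well), adapted to each medium, received library compounds in DMSO at 11 threefold doses from 47 μM to 0.79 nM. CellTiter-Glo One luminescence, normalised per plate to DMSO and cell-free wells, was fitted by a four-parameter log-logistic function of log10 dose. The area under the curve was then integrated by trapezoidal rule, after scaling curves above full viability and removing those that failed quality control.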

NOMO1 = system: NOMO1
Procedure, shortened: as §1

SEM cells = system: SEM cells
Procedure, shortened: as §1

[1] = RPMI 5 mM glucose + 10% dialyzed FBS

Compound | AUC of viability dose-response curve (P12-Ichikawa; HPLM + 10% dialyzed FBS) | AUC of viability dose-response curve (P12-Ichikawa; RPMI 5 mM glucose + 10% FBS) | AUC of viability dose-response curve (P12-Ichikawa; [1]) | AUC of viability dose-response curve (NOMO1; HPLM + 10% dialyzed FBS) | AUC of viability dose-response curve (NOMO1; RPMI 5 mM glucose + 10% FBS) | AUC of viability dose-response curve (NOMO1; [1]) | AUC of viability dose-response curve (SEM cells; HPLM + 10% dialyzed FBS) | AUC of viability dose-response curve (SEM cells; RPMI 5 mM glucose + 10% FBS) | AUC of viability dose-response curve (SEM cells; [1])
CCCCN1CCC(CNC(=O)c2c3n(c4ccccc24)CCCO3)CC1 | 461 | 459 | 465 | 474 | 467 | 470 | 431 | 474 | 462
c1cc2c(cc1[C@H]1OC[C@H]3[C@@H]1CO[C@@H]3c1ccc3c(c1)OCO3)OCO2 | 470 | 452 | 473 | 467 | 462 | 456 | 468 | 454 | 455
COc1cccc(N(C)C(=S)Oc2ccc3c(c2)CCCC3)n1 | 469 | 470 | 455 | 465 | 441 | 444 | 389 | 445 | 452
C/C1=C/C(=C(/CNC(=O)C2=CC(=CC3=C2C=N[N]3C4CCCC4)C5=CC=C(CN6CCOCC6)C=C5)C(=O)N1)C | 456 | 462 | 452 | 448 | 456 | 451 | – | – | –
COc1cc2c(cc1OC)CN(CCc1ccc(NC(=O)c3cccc4c(=O)c5cccc(OC)c5[nH]c34)cc1)CC2 | 326 | 372 | 366 | 348 | 391 | 395 | 380 | 276 | 320
Clc1ccc(C(c2ccc(Cl)cc2)[n+]2ccn(CC(OCc3ccc(Cl)cc3Cl)c3ccc(Cl)cc3Cl)c2)cc1 (configuration not stated) | 438 | 432 | 444 | 441 | 441 | 440 | 432 | 415 | 440
O=C(O)c1cccc(-c2noc(-c3ccccc3F)n2)c1 | 470 | 465 | 465 | 456 | 451 | 465 | 454 | 457 | 472
C[C@]12CC[C@H]3[C@@H](CC[C@@]45O[C@@H]4C(O)=C(C#N)C[C@]35C)[C@@H]1CC[C@@H]2O | 454 | 454 | 454 | 457 | 458 | 456 | 446 | 363 | 416
CC(C)[C@H]1C(=O)N[C@H](CO)Cc2c[nH]c3cccc(c23)N1C | 446 | 411 | 401 | 393 | 404 | 405 | 396 | 379 | 442
COc1cc(N2CCC(N3CCN(C)CC3)CC2)ccc1Nc1ncc(Cl)c(Nc2ccccc2[S+](=O)([O-])C(C)C)n1 | – | – | – | – | – | – | 284 | 273 | 300
Cc1nnc(C(C)C)n1[C@@H]1C[C@H]2CC[C@@H](C1)N2CC[C@H](NC(=O)C1CCC(F)(F)CC1)c1ccccc1 | 460 | 454 | 437 | 445 | 411 | 394 | 425 | 379 | 419
Nc1ncnc2nc(-c3ccc(N4CCOCC4)nc3)cc(-c3cccc(Br)c3)c12 | 460 | 439 | 467 | 463 | 475 | 460 | 470 | 471 | 470
O=C(Nc1ccccc1)Nc1ccc(-c2ccc(C(=O)[C@@H]3CCC[C@H]3C(=O)O)cc2)cc1 | 444 | 444 | 443 | 406 | 441 | 409 | 476 | 467 | 468
Cc1cccc(-c2[nH]c(C(C)(C)C)nc2-c2ccc3nccnc3c2)n1 | 459 | 458 | 424 | 460 | 430 | 455 | 444 | 383 | 443
CCOc1ccccc1N/N=C1/C(=O)N(c2nc(-c3ccccc3)cs2)N=C1C | 444 | 467 | 450 | 428 | 447 | 419 | 368 | 371 | 358
Nc1nccc(-c2ccc3noc(-c4ccc(Cl)cc4)c3c2)n1 | 468 | 466 | 470 | 449 | 464 | 469 | 425 | 457 | 462
CC(C)[C@H](O)C(=O)N[C@@H](C)C(=O)N[C@@H]1C(=O)N(C)CCc2ccccc21 | 447 | 450 | 423 | 444 | 472 | 460 | 431 | 441 | 393
C[C@H](NC(=O)[C@@H](O)c1cc(F)cc(F)c1)C(=O)N[C@@H]1C(=O)N(C)c2ccccc2-c2ccccc21 | 432 | 441 | 437 | 402 | 450 | 432 | 440 | 453 | 417

Compound | AUC of viability dose-response curve (P12-Ichikawa; HPLM + 10% dialyzed FBS) | AUC of viability dose-response curve (P12-Ichikawa; RPMI 5 mM glucose + 10% FBS) | AUC of viability dose-response curve (P12-Ichikawa; [1]) | AUC of viability dose-response curve (NOMO1; HPLM + 10% dialyzed FBS) | AUC of viability dose-response curve (NOMO1; RPMI 5 mM glucose + 10% FBS) | AUC of viability dose-response curve (NOMO1; [1]) | AUC of viability dose-response curve (SEM cells; HPLM + 10% dialyzed FBS) | AUC of viability dose-response curve (SEM cells; RPMI 5 mM glucose + 10% FBS) | AUC of viability dose-response curve (SEM cells; [1])
COc1cc2c(cc1O)CCC1C2CC[C@@]2(C)C1CC[C@@H]2O (some centres not stated) | 359 | 368 | 382 | 390 | 412 | 404 | – | – | –
COc1c(N2C[C@@H]3CCCN[C@@H]3C2)c(F)cc2c(=O)c(C(=O)O)cn(C3CC3)c12.Cl.O | 434 | 394 | 399 | 390 | 456 | 437 | – | – | –
Cc1noc(N[S+](=O)([O-])c2ccc(N)cc2)c1C | 460 | 468 | 463 | 464 | 457 | 426 | 448 | 457 | 456
NC(=O)c1nnn(Cc2cc(Cl)c(C(=O)c3ccc(Cl)cc3)c(Cl)c2)c1N | 463 | 465 | 464 | 465 | 455 | 470 | 471 | 462 | 464
CC(C)(Sc1cc(C(C)(C)C)c(O)c(C(C)(C)C)c1)Sc1cc(C(C)(C)C)c(O)c(C(C)(C)C)c1 | 445 | 414 | 405 | 449 | 428 | 436 | 385 | 415 | 409
CC(C)C[C@H](CC(=O)O)C(=O)N[C@@H](Cc1c[nH]c2ccccc12)C(=O)N[C@@H](C)c1ccccc1 | 413 | 419 | 421 | 428 | 446 | 465 | – | – | –
NCCOc1cc(C(=O)Nc2cc(OCCN)c3ccccc3n2)nc(C(=O)Nc2cc(OCCN)c3ccccc3n2)c1 | – | – | – | – | – | – | 148 | 122 | 170
COc1cc2cc(c1Cl)N(C)C(=O)C[C@H](OC(=O)C(C)C)[C@]1(C)O[C@@H]1[C@H](C)[C@@H]1C[C@@](O)(NC(=O)O1)[C@H](OC)/C=C/C=C(\C)C2 | 37.9 | 42.6 | 59.7 | – | – | – | 66.3 | 51.6 | 49.3
CCC[C@H](Nc1nc(-c2ccc(NC(=O)NCC)c(OC)c2)ncc1C)c1cccnc1 | 195 | 194 | 205 | 287 | 251 | 251 | – | – | –
CCC(=O)NC[C@H](Cc1ccc(OCCc2nc(-c3ccccc3)oc2C)cc1)N/C(C)=C\C(=O)c1ccc(C(F)(F)F)cc1 | 410 | 406 | 398 | 433 | 438 | 462 | – | – | –
N#CC1(c2cccc(C(=O)Nc3cc(Oc4ccc5nc(NC(=O)C6CC6)sc5n4)ccc3F)c2Cl)CC1 | 372 | 362 | 369 | 344 | 370 | 327 | – | – | –
c1ccc2c(CN3CCNCC3)cccc2c1 | – | – | – | 462 | 455 | 456 | 465 | 473 | 454
CC(C)[C@]12O[C@H]1[C@@H]3O[C@@]34[C@@]5(C)CC\C6=C(COC6=O)/[C@@H]5C[C@@H]7O[C@]47[C@@H]2O | 59 | 56.8 | 62.8 | 49.2 | 49 | 45.7 | – | – | –
Clc1ccc(C(c2ccccc2Cl)C(Cl)Cl)cc1 (configuration not stated) | 452 | 436 | 432 | 427 | 456 | 448 | – | – | –
O=C1c2ccccc2-c2n[nH]c3cccc1c23 | 416 | 401 | 422 | 429 | 433 | 449 | – | – | –
CCC(=O)O[C@@]1(CC[C@H]2[C@@H]3CCC/4=C/C(=O)CC[C@]4(C)[C@H]3CC[C@]12C)C(=O)CO | 454 | 452 | 455 | 457 | 467 | 458 | – | – | –
CC(=O)N(O)CCCCCNC(=O)CCC(=O)N(O)CCCCCNC(=O)CCC(=O)N(O)CCCCCN.C[S+](=O)([O-])O | 115 | 225 | 249 | 204 | 199 | 261 | – | – | –
C/C=C(\C)C(=O)N[C@@H](c1ccccc1)[C@@H](O)C(=O)O[C@H]1C[C@@]2(O)[C@@H](OC(=O)c3ccccc3)[C@@H]3[C@]4(OC(C)=O)CO[C@@H]4C[C@H](O)[C@@]3(C)C(=O)[C@H](OC(C)=O)C(=C1C)C2(C)C | 102 | 85.3 | 130 | – | – | – | 104 | 85.3 | 87.7
